Here are results for 20 compounds from US11072611B2, “Compounds and pharmaceutical compositions thereof for the treatment of inflammatory disorders” (Galapagos NV, priority 2013, dated 2021).

As a reminder, the IC50 is the concentration needed to halve the response being measured.

In this test the test system is LPA 18:2. Put plainly: Rat whole blood (plasma) LPA assay. The following applies: 2 h at 37° C., LPA 18:2 by LC-MS/MS. Format: biochemical. Here is the method: Whole blood is collected from rats or mouse by exsanguinations on sodium heparin tube, then after centrifugation at 3000 rpm for 15 min at 4° C., plasma is stored at −80° C. Compounds are diluted in DMSO in concentration dependent manner then 0.5 μL are dispensed into 96-well plate placed in ice. Plasma is defrosted on ice then 49.5 μL of plasma are added into the well containing 0.5 μL of compound (1% DMSO final). Plates are covered with a lid in polypropylene and incubated at +37° C., 5% CO2, for 2 h under gentle shaking (except controls which are stored at −20° C.).
At the end of the incubation, controls are defrosted in ice and transferred in the incubated plates for LC-MS/MS analysis with a non GLP-validated method. For the analysis, plasma proteins from a 10 μL incubated plates are precipitated with an excess of methanol containing the internal standard, LPA 17:0. After centrifugation, the corresponding supernatant is injected on a C18 column. Analytes are eluted out of the column under isocratic conditions. An API5500 QTRAP mass spectrometer (ABSciex™) is used for the detection of LPA 18:2. No calibration curve is prepared for LPA 18:2, however relative quantities are evaluated based on the peak area.
Regarding `CCc1nc2c(F)cc(N3CCN(CC(=O)NC)CC3)cn2c1N(C)c1nc(-c2ccc(F)cc2)c(C#N)s1` [Compound 13, 2-(4-(3-((5-cyano-4-(4-fluorophenyl)thiazol-2-yl)(methyl)amino)-2-ethyl-8-fluoroimidazo[1,2-a]pyridin-6-yl)piperazin-1-yl)-N-methylacetamide], the IC50 lay in the range of 0.01 to 100 nM.

`CCc1nc2c(F)cc(N3CCN(CC(=O)N4CC(O)C4)CC3)cn2c1N(C)c1nc(-c2ccc(F)cc2)cs1` [Compound 14, 2-(4-(2-ethyl-8-fluoro-3-((4-(4-fluorophenyl)thiazol-2-yl)(methyl)amino)imidazo[1,2-a]pyridin-6-yl)piperazin-1-yl)-1-(3-hydroxyazetidin-1-yl)ethanone] had an IC50 of 0.01 to 100 nM.

The compound `CCc1nc2cc(F)c(N3CCN(CC(=O)N4CC(O)C4)CC3)cn2c1N(C)c1nc(-c2ccc(F)cc2)c(C#N)s1` [Compound 18, 2-[(2-Ethyl-7-fluoro-6-{4-[2-(3-hydroxy-azetidin-1-yl)-2-oxo-ethyl]-piperazin-1-yl}-imidazo[1,2-a]pyridin-3-yl)-methyl-amino]-4-(4-fluoro-phenyl)-thiazole-5-carbonitrile] registered an IC50 of 0.01 to 100 nM.

As to `CCc1nc2cc(F)c(N3CCN(CC(=O)N4CC(O)C4)CC3)cn2c1N(C)c1nc(-c2ccc(F)cc2)cs1` [Compound 19, 2-[4-(2-Ethyl-7-fluoro-3-{[4-(4-fluoro-phenyl)-thiazol-2-yl]-methyl-amino}-imidazo[1,2-a]pyridin-6-yl)-piperazin-1-yl]-1-(3-hydroxy-azetidin-1-yl)-ethanone], the half-maximal inhibitory concentration (IC50) is over 1000 nM.

`CCc1nc2ccc(N3CCN(CC(=O)N4CC[C@@H](O)C4)CC3)cn2c1N(C)c1nc(-c2ccc(F)cc2)cs1` [Compound 26, (R)-2-(4-(2-ethyl-3-((4-(4-fluorophenyl)thiazol-2-yl)(methyl)amino)imidazo[1,2-a]pyridin-6-yl)piperazin-1-yl)-1-(3-hydroxypyrrolidin-1-yl)ethanone] registered an IC50 of over 1000 nM.

With `CCc1nc2ccc(N3CCN(C(=O)C4CCCN4)CC3)cn2c1N(C)c1nc(-c2ccc(F)cc2)cs1` (centres unmarked) [Compound 46, (4-(2-ethyl-3-((4-(4-fluorophenyl)thiazol-2-yl)(methyl)amino)imidazo[1,2-a]pyridin-6-yl)piperazin-1-yl)(pyrrolidin-2-yl)methanone], the IC50 was over 1000 nM.

With `CCc1nc2ccc(N3CCN(C(=O)C4CCN(C(C)=O)C4)CC3)cn2c1N(C)c1nc(-c2ccc(F)cc2)cs1` (centres unmarked) [Compound 48, 1-{3-[4-(2-Ethyl-3-{[4-(4-fluoro-phenyl)-thiazol-2-yl]-methyl-amino}-imidazo[1,2-a]pyridin-6-yl)-piperazine-1-carbonyl]-pyrrolidin-1-yl}-ethanone], the IC50 was over 1000 nM.

As for `CCc1nc2ccc(N3CCN(C(=O)CCCN(C)C)CC3)cn2c1N(C)c1nc(-c2ccc(F)cc2)cs1` [Compound 53, 4-(dimethylamino)-1-(4-(2-ethyl-3-((4-(4-fluorophenyl)thiazol-2-yl)(methyl)amino)imidazo[1,2-a]pyridin-6-yl)piperazin-1-yl)butan-1-one], the IC50 was over 1000 nM.

As for `CCc1nc2ccc(N3CCN(S(C)(=O)=O)CC3)cn2c1N(C)c1nc(-c2ccc(F)cc2)cs1` [Compound 54, N-(2-ethyl-6-(4-(methylsulfonyl)piperazin-1-yl)imidazo[1,2-a]pyridin-3-yl)-4-(4-fluorophenyl)-N-methylthiazol-2-amine], the IC50 is over 1000 nM.

`CCc1nc2ccc(N3CCN(S(=O)(=O)CCCN(C)C)CC3)cn2c1N(C)c1nc(-c2ccc(F)cc2)cs1` [Compound 56, N-(6-(4-(3-(dimethylamino)propylsulfonyl)piperazin-1-yl)-2-ethylimidazo[1,2-a]pyridin-3-yl)-4-(4-fluorophenyl)-N-methylthiazol-2-amine] showed an IC50 of over 1000 nM.

On to `CCc1nc2ccc(N3CCN(S(=O)(=O)CCCO)CC3)cn2c1N(C)c1nc(-c2ccc(F)cc2)cs1` [Compound 58, 3-(4-(2-ethyl-3-((4-(4-fluorophenyl)thiazol-2-yl)(methyl)amino)imidazo[1,2-a]pyridin-6-yl)piperazin-1-ylsulfonyl)propan-1-ol], for which the IC50 was over 1000 nM.

With `CCc1nc2ccc(C3=CCN(S(C)(=O)=O)CC3)cn2c1N(C)c1nc(-c2ccc(F)cc2)cs1` [Compound 66, N-(2-ethyl-6-(1-(methylsulfonyl)-1,2,3,6-tetrahydropyridin-4-yl)imidazo[1,2-a]pyridin-3-yl)-4-(4-fluorophenyl)-N-methylthiazol-2-amine], the 50% inhibitory concentration (IC50) is over 1000 nM.

With `CCc1nc2ccc(C3=CCN(S(C)(=O)=O)CC3)cn2c1N(C)c1nc(-c2ccc(OC(F)(F)F)cc2)cs1` [Compound 72, N-(2-ethyl-6-(1-(methylsulfonyl)-1,2,3,6-tetrahydropyridin-4-yl)imidazo[1,2-a]pyridin-3-yl)-N-methyl-4-(4-(trifluoromethoxy)phenyl)thiazol-2-amine], the IC50 is over 1000 nM.

Compound `CCc1nc2ccc(C3=CCN(S(=O)(=O)CCCO)CC3)cn2c1N(C)c1nc(-c2ccc(F)cc2)cs1` [Compound 75, 3-(4-(2-ethyl-3-((4-(4-fluorophenyl)thiazol-2-yl)(methyl)amino)imidazo[1,2-a]pyridin-6-yl)-5,6-dihydropyridin-1(2H)-ylsulfonyl)propan-1-ol] showed an IC50 of over 1000 nM.

In turn, `CCc1nc2ccc(C3CCN(S(=O)(=O)CCN4CCOCC4)CC3)cn2c1N(C)c1nc(-c2ccc(F)cc2)cs1` [Compound 91] came in with an IC50 of over 1000 nM.

In turn, `CCc1nc2ccc(C3CCN(S(C)(=O)=O)CC3)cn2c1N(C)c1nc(-c2ccc(F)cc2C#N)cs1` [Compound 96, 2-(2-((2-ethyl-6-(1-(methylsulfonyl)piperidin-4-yl)imidazo[1,2-a]pyridin-3-yl)(methyl)amino)thiazol-4-yl)-5-fluorobenzonitrile] had an IC50 of 0.01 to 100 nM.

In the case of `CCc1nc2ccc(C3CCN(CC(=O)N4CCCC4)CC3)cn2c1N(C)c1nc(-c2ccc(F)cc2)cs1` [Compound 115, 2-(4-(2-ethyl-3-((4-(4-fluorophenyl)thiazol-2-yl)(methyl)amino)imidazo[1,2-a]pyridin-6-yl)piperidin-1-yl)-1-(pyrrolidin-1-yl)ethanone], the half-maximal inhibitory concentration (IC50) was 0.01 to 100 nM.

In turn, `CCc1nc2ccc(C3CCN(S(C)(=O)=O)CC3)cn2c1N(C)c1nc(-c2ccc(F)cc2)c(C#N)s1` [Compound 136, 2-((2-ethyl-6-(1-(methylsulfonyl)piperidin-4-yl)imidazo[1,2-a]pyridin-3-yl)(methyl)amino)-4-(4-fluorophenyl)thiazole-5-carbonitrile] gave an IC50 of 0.01 to 100 nM.

The compound `CCc1nc2ccc(N3CCN(CC(=O)N4CC(O)C4)CC3)cn2c1N(C)c1nc(-c2ccc(F)cc2)c(C#N)s1` [Compound 138, 2-((2-ethyl-6-(4-(2-(3-hydroxyazetidin-1-yl)-2-oxoethyl)piperazin-1-yl)imidazo[1,2-a]pyridin-3-yl)(methyl)amino)-4-(4-fluorophenyl)thiazole-5-carbonitrile] displayed a half-maximal inhibitory concentration (IC50) of 0.01 to 100 nM.

`CCc1nc2ccc(N3CCN(CC(=O)N(C)C)CC3)cn2c1N(C)c1nc(-c2ccc(F)cc2)c(C#N)s1` [Compound 140, 2-(4-(3-((5-cyano-4-(4-fluorophenyl)thiazol-2-yl)(methyl)amino)-2-ethylimidazo[1,2-a]pyridin-6-yl)piperazin-1-yl)-N,N-dimethylacetamide] returned an IC50 of 0.01 to 100 nM.
